Laboratory results taken from patent publication US20220242853A1, “MODIFIED CYANINE DYES AND CONJUGATES THEREOF” (BRACCO IMAGING S.P.A., priority 2019, published 2022).

Assays:
[1] = Optical properties: excitation/emission maxima and absolute fluorescence quantum yield; format: physicochemical
Procedure: Analysis were performed with a Waters Atlantis dC18 5 μm, 4.6×150 mm column using a gradient of phase A CH3COONH4 10 mM and phase B acetonitrile. Measured mass/charge ratios are listed for each compound. A dual-beam UV-VIS spectrophotometer (Lambda 40, Perkin Elmer) was used to determine the absorbance (Abs) of the compounds of the invention. […] The measurements were performed using an excitation wavelength at maximum absorbance of different dyes, and the sample was excited with a […] Xenon Light Source. Detection was performed by photomultiplier tubes (PMT-NIR) cooled detector or by TBX-04 detector. Dye solutions were carefully prepared to have an absorbance lower than 0.1 (optical densities) to minimize re-absorption phenomena. The compounds of the invention have been characterized in terms of their optical properties in vitro in aqueous medium (i.e., water/PBS pH 7.4) and in a clinical chemistry control serum (Seronorm, Sero SA), mimicking the chemical composition and optical properties of human serum. All dye or dye-conjugate solutions were freshly prepared.

[2] = biological target: T1, human recombinant integrin αvβ3 (Homo sapiens, UniProt P05106+P06756); assay: Integrin receptor affinity ELISA (vitronectin-coated plates); format: binding; details: tested in duplicate; read-out: Receptor affinity (IC50)
T1 construct: purchased R&D Systems

[3] = system: WM-266-4 human melanoma cells; assay: Cell uptake by flow cytometry (FACS); format: cell-based
Procedure: The human melanoma cell line WM-266-4 (ATCC, CRL-1676) was used as in vitro model to assess the cell uptake of representative integrin-binding Compounds 1 and 3, based on the high expression of the integrin receptors, particularly αvβ3, on the membrane of these cells (Capasso et al., PlosOne 2014).
Adherent cells at about 70% confluence were incubated with the compounds 1 or 3 (1 μM) for 2h at 37° C. (5% CO2) in presence of Dulbecco's Modified Eagle's Medium (DMEM) supplemented with 10% FBS, 2 mM glutamine, 100 IU/mL penicillin and 100 μg/mL streptomycin. After two washing steps with PBS, cells were detached using 0.1 mM EDTA in PBS, centrifuged and suspended in buffer (PBS, 0.5% BSA, 0.1% NaN3) for flow cytometry experiments. Fluorescence Activated Cell Sorting (FACS) was used to detect the fluorescence signal within the cells, as measure of cell uptake. Samples were excited with an Argon laser and the emission detected using a 670 nm longpass filter. Values of fluorescence intensity were obtained from the histogram statistic produced by the instrument software.
The residual internalization was calculated by considering the value of fluorescence intensity in absence of the competitor as 100%.
Furthermore, to assess the effect of biological fluids on the cell uptake, parallel experiments were performed incubating the cells with a compounds of the invention in presence of human serum from male AB plasma (Sigma Aldrich, H4522) or human albumin (Sigma Aldrich, A9511). The residual internalization was calculated by considering the value of fluorescence intensity in absence of the serum as 100%. Such uptake assessment also represents an indication of the percentage of compound which is sequestered by the plasma proteins, in particular albumin, when it diffuses through the vascular compartment before reaching the tissue of interest and the particular targeted receptor.

Detroit-562 cells = assay: Tumor uptake by ex vivo optical imaging, orthotopic human head and neck cancer model; format: in vivo, Balb/c nu/nu mice; details: ex vivo tongue, 24 hours after iv 3 nmol/mouse
Procedure: Parallel experiments were performed in an animal model of human head and neck cancer (orthotopic), using Detroit-562 cells, overexpressing in particular integrin receptor αvβ6. Briefly, the human pharyngeal carcinoma cells Detroit-562 (ATCC, CCL-138) were cultured in Eagle's Minimum Essential Medium (EMEM) supplemented with 10% Fetal Bovine Serum (FBS), 2 mM glutamine, 100 IU/mL penicillin, 100 μg/mL streptomycin. Male Balb/c nu/nu mice, 4-6 weeks of age (Charles River Laboratories), underwent orthotopic implantation in the anterior portion of the tongue of about 2.5 million cells suspended in 0.03 mL di EMEM. Mice were housed 4 per cage with food and water ad libitum. Animals were fed with VRF1 (P) sterile diet (Special Diets Services Ltd) up to the end of the acclimation period (5 days). Then, AIN-76a rodent diet irradiated (Research Diets), a special diet that reduces auto-fluorescence, was used up to the end of the experiments. Tumor growth was monitored by longitudinal assessments using a caliper up to the target size of 10-20 mm^3 (7-10 days after cell implantation).
Imaging experiments were performed using the preclinical optical system IVIS Spectrum (Perkin Elmer). Animals were intravenously injected (lateral tail vein) with 3 nmol/mouse, at 24 hours post-administration were euthanized by anesthesia overdose, and the tongues were excised for ex vivo optical imaging. […]

HT-29 cells = assay: Tumor uptake by optical imaging, subcutaneous human colorectal cancer model; format: in vivo, Athymic nude mice; details: iv 1 nmol, tumor vs muscle
Procedure: Parallel experiments were performed in an animal model of human colorectal cancer (subcutaneous), using HT-29 cells, expressing low levels of integrin receptors. Briefly, the human colorectal adenocarcinoma cells HT-29 (ATCC, HTB-38) were cultured in McCoy's 5A medium supplemented with 10% foetal bovine serum, 2 mM glutamine, 100 IU/mL penicillin and 100 μg/mL streptomycin. Male Athymic nude mice, 4-6 weeks of age (Envigo), underwent subcutaneous implantation (right flank) of about 5 million cells suspended in 0.1 mL of serum-free medium. Mice were housed 4 per cage with food and water ad libitum. […] Then, AIN-76a rodent diet irradiated (Research Diets), a special diet that reduces auto-fluorescence, was used up to the end of the experiments. Tumor growth was monitored by longitudinal assessments using a caliper up to the target size of 300-600 mm^3 (3-4 weeks after cell implantation). […]
In vivo imaging was performed under gas anesthesia (Sevofluorane 6-8% in oxygen). […] Regions of interest (ROIs) were drawn on the tissues of interest for each fluorescence image at every time point to evaluate signal intensity (expressed as Average Radiant Efficiency). The ratio between the fluorescence signal in the tumor and in the muscle (background tissue) was then calculated to assess the contrast.

Question: For CC(CC[N+]1=C(/C=C/C=C/C=C/C=C2/N(CCCCCC(=O)NCCCC[C@@H]3NC(=O)C(Cc4ccccc4)NC(=O)[C@H](CC(=O)O)NC(=O)CNC(=O)[C@H](CCCNC(=N)N)NC3=O)c3ccc(C(=O)NCC(O)C(O)C(O)C(O)CO)cc3C2(C)C)C(C)(C)c2cc(C(=O)NCC(O)C(O)C(O)C(O)CO)ccc21)S(=O)(=O)[O-] (stereo partly shown) [Compound 1], which “Max Em” value ([1]; PBS pH 7.4) is on record?
Answer: 786 nm

Question: And the “Max Ex” value ([1]; PBS pH 7.4)?
Answer: 757 nm

Question: What about the “Φ (absolute fluorescence quantum yield)” value ([1]; PBS pH 7.4) of the same molecule?
Answer: 9.8%

Question: What about the “Φ (absolute fluorescence quantum yield)” value ([1]; Seronorm control serum) of the same molecule?
Answer: 13.0%

Question: What about the IC50 [2] of the same molecule?
Answer: 2.96 ± 0.49 nM

Question: What about the “Residual uptake in the presence of 4% HSA” value ([3]; 1 μM, 2h at 37° C.) of the same molecule?
Answer: 70%

Question: And the “Residual cell uptake in presence of human serum” value ([3]; 1 μM, 2h at 37° C., uptake without serum = 100%)?
Answer: 80%

Question: And the “Residual uptake in the presence of c(RGDfK) as competitor” value ([3]; 100 μM c(RGDfK), uptake without competitor = 100%)?
Answer: 10%

Question: What about the Tumor-to-background contrast (Detroit-562 cells) of the same molecule?
Answer: high tumor-to-background contrast

Question: And the “Tumor-to-background ratio (TBR)” value (HT-29 cells)?
Answer: 1.2-1.5
